Assay results published in ChEMBL document CHEMBL1201862, “PubChem BioAssay data set” (2004).
Calls of active or inactive are those of the source.

Assays:
[1] = biological target: Cytochrome P450 3A4 (Homo sapiens, UniProt P08684); settings: Potency;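 also: confirmatory qHTS run detecting inhibitors and substrates of CYP3A4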
[2] = tested on: P388; assay: cells; type: functional; settings: Mus musculus
[3] = tested on: P388/ADR; assay: cells; type: functional; settings: Mus musculus
[4] = tested on: SN12K1; assay: cells; type: functional; settings: Homo sapiens
[5] = biological target: T1, Fatty acid synthase (Homo sapiens, UniProt P49327); assay: inhibition of human FAS-TE enzyme activity – biochemical, kinetic fluorescence intensity, dose response (AID 624326); type: functional;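 also: rate of fluorescence rise from hydrolysis of a fluorogenic O-methyl fluorescein ester substrate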
T1 sequence (P49327 whole entry): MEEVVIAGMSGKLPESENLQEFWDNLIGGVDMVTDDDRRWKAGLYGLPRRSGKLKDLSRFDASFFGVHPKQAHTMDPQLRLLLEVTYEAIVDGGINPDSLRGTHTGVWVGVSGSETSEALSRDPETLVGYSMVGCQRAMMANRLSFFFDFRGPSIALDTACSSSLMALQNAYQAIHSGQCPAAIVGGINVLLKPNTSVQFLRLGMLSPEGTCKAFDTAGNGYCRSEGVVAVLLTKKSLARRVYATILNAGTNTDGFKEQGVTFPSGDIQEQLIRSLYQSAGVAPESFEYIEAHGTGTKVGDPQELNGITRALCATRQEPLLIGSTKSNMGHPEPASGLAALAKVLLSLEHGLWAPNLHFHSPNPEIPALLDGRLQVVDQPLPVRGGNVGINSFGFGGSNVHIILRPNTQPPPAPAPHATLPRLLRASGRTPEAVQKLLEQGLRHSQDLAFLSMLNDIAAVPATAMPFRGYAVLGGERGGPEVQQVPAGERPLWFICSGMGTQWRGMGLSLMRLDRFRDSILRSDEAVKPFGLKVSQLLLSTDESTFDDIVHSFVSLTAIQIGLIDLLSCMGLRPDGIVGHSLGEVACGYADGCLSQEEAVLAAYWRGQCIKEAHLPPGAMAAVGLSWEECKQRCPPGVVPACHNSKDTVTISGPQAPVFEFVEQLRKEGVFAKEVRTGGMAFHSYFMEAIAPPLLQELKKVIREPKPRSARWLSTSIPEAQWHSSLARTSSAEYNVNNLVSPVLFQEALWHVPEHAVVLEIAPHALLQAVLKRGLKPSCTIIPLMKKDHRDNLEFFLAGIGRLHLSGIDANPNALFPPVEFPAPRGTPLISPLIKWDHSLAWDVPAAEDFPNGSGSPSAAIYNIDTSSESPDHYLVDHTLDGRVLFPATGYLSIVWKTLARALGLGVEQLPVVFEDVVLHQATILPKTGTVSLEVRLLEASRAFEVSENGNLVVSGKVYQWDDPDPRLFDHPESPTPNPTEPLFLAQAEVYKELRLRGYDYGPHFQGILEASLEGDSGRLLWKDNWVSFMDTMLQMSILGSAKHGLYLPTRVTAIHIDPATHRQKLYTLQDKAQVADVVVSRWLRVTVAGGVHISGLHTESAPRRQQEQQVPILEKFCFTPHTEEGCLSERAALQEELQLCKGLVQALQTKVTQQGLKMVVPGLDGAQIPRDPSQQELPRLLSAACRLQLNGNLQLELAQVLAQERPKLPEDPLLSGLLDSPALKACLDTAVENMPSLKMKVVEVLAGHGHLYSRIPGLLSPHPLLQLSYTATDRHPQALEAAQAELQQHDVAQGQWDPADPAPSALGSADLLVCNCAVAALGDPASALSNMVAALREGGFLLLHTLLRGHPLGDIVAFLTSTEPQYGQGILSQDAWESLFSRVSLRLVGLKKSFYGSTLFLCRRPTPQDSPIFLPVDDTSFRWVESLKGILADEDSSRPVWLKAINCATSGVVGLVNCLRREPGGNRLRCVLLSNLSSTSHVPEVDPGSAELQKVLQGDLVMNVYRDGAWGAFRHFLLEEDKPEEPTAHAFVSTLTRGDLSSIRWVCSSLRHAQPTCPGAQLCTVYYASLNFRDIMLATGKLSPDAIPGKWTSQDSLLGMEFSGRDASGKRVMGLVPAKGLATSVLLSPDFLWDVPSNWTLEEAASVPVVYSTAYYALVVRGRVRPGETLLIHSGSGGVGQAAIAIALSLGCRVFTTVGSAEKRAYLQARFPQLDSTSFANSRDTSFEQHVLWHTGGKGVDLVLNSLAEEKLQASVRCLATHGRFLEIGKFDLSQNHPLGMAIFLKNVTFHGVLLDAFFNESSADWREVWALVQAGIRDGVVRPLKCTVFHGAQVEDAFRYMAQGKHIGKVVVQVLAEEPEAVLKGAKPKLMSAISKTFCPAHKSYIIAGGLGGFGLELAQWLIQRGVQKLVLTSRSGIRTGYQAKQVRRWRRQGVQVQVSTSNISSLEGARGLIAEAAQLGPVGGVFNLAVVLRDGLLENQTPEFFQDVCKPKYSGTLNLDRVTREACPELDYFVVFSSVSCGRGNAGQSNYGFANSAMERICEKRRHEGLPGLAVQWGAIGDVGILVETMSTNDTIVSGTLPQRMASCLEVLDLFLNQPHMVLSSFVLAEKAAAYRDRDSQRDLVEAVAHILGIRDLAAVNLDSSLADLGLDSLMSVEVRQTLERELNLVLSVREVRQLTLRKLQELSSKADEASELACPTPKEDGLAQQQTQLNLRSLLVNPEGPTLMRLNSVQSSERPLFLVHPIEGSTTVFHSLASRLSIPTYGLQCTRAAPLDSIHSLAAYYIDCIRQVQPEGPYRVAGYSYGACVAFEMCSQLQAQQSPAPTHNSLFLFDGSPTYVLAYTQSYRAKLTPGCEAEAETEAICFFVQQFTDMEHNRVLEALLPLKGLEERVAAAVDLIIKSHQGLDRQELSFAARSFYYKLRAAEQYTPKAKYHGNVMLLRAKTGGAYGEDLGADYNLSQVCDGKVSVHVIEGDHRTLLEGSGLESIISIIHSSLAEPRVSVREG

[6] = biological target: T1, Fatty acid synthase; assay: inhibition of human FAS-TE enzyme activity – biochemical, endpoint fluorescence intensity, uHTS hits, dose response (AID 624327); type: functional;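 also: fluorescence from hydrolysis of an O-methyl fluorescein acyl ester substrate by the enzyme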
[7] = luciferase reporter signal suppression in cells – H4 neuroglioma cells, luminescence, dose response (AID 1990); type: functional, cell-based
[8] = alpha-synuclein stem-loop luciferase translation blockers – H4 neuroglioma cells, luminescence, confirmation (AID 1988); type: functional, cell-based
[9] = Luminescence Cell-Based Dose Response HTS to Identify Inhibitors of 5'UTR Stem-Loop Driven Prion Protein mRNA Translation in H4 Neuroglioblastoma Cells. [Related pubchem assays: 1827 (Project Summary), 1813 (Primary HTS)]; type: functional
[10] = Luminescence Cell-Based Dose Retest to Confirm Inhibitors of Cancer Stem Cells. [Related pubchem assays (depositor defined):AID2717, AID2721]; type: functional; settings: Homo sapiens
[11] = tested on: BJ; assay: BJ-TERT fibroblast viability loss – cell-based, RAS-independent, luminescence, dose response (AID 1933); type: functional; settings: Homo sapiens
[12] = biological target: T2, Protein RecA (Mycobacterium tuberculosis, UniProt P9WHJ3); assay: Fluorescence Cell-Free Homogeneous Dose Retest to Identify Inhibitors of RecA-Intein Splicing Activity. [Related pubchem assays (depositor defined):AID2097, AID2223, AID489010, AID492950]; type: functional
T2 sequence (P9WHJ3 whole entry): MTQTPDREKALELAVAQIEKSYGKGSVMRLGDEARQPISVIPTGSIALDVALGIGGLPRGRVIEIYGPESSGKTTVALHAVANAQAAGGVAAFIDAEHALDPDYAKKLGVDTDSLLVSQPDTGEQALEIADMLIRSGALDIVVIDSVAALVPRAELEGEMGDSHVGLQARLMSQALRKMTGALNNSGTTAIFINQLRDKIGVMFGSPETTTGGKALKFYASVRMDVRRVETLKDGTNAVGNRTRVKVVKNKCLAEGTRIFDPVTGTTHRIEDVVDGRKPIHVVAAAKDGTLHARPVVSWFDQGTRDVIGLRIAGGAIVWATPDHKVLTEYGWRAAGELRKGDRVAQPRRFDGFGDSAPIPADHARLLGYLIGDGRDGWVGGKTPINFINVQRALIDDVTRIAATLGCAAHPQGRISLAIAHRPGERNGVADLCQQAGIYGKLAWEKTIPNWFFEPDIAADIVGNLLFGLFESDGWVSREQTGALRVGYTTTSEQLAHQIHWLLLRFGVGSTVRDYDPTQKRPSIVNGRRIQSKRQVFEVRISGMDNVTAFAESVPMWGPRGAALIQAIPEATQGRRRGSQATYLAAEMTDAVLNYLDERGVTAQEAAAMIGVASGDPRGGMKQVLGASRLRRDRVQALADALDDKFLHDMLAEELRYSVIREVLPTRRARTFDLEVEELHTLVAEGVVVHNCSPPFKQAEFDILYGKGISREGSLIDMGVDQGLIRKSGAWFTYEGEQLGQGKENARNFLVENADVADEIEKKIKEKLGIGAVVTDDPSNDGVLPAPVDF

[13] = DRD fibroblast viability loss – cell-based, non-viral oncogenic, luminescence, dose response (AID 1934); type: functional; settings: Homo sapiens
[14] = tested on: BJ; assay: cells; type: functional, cell-based; settings: Homo sapiens
[15] = viability of uninfected HEp-2 cells – cell-based, HTS, cytotoxicity control for RSV inhibitor project, dose response (AID 2410); type: functional; settings: human respiratory syncytial virus
[16] = biological target: T3, Replicative DNA helicase DnaB (Mycobacterium tuberculosis, UniProt P9WMR3); assay: DnaB intein splicing inhibitors, dose response, biochemical, cell-free fluorescence (AID 449749); type: functional
T3 sequence (P9WMR3 whole entry): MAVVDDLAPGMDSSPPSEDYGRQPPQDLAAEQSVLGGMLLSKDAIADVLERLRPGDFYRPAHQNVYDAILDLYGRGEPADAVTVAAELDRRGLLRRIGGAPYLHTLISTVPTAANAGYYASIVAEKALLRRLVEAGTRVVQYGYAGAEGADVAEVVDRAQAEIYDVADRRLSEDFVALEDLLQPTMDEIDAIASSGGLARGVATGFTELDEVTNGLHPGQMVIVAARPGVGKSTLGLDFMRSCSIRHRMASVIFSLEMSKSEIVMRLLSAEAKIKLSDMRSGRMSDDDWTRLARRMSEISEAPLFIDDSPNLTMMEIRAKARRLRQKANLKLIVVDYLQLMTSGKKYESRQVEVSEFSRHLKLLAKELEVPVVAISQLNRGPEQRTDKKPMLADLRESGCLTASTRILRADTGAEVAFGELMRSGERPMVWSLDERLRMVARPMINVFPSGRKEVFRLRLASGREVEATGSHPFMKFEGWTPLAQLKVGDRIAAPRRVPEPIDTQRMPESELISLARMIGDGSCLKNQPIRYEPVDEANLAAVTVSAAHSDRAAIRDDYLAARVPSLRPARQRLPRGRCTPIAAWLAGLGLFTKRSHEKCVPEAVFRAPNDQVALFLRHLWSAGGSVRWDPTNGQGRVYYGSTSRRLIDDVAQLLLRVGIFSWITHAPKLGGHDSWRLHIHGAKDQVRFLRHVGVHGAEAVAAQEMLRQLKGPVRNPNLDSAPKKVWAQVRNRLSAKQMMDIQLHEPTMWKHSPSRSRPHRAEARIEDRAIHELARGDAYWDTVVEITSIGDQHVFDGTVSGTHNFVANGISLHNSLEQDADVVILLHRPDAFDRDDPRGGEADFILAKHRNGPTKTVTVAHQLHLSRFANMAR

[17] = tested on: BJ; assay: BJ-TERT-LT-ST fibroblast viability loss – cell-based, RAS-independent, luminescence, dose response (AID 1935); type: functional; settings: Homo sapiens;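 also: BJ fibroblasts immortalized with TERT plus LT and ST oncogenes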
[18] = tested on: INS1; assay: INS-1E survival protection against cytokine death – cell-based, luminescence, retest, dose response (AID 449756); type: functional; settings: Rattus norvegicus;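 also: cell death triggered by IL-1 beta plus TNF-alpha plus IFN-gamma mixture; protective hits raise ATP signal compared with cytokine alone wells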
[19] = loss of viability in HepG2 cells – cell-based, CellTiter-Glo, cherry-picked, cytotoxicity control for Shn3 inhibitor project, dose response (AID 624134); type: functional
[20] = non-specific 3'UTR reporter inhibition in Clone20-Shn3RL – cell-based, Renilla luciferase, cherry-picked, counter-screen for Shn3 inhibitor project, dose response (AID 624133); type: functional
[21] = reduction of Shn3 3'UTR-driven luciferase in osteoblasts – cell-based, Clone20 osteoblasts, firefly luciferase, cherry-picked, dose response (AID 624132); type: functional;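 also: firefly luciferase luminescence from reporter carrying the Shn3 3'UTR in osteoblasts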

Chain of Cytochrome P450 3A4 (P08684 whole entry): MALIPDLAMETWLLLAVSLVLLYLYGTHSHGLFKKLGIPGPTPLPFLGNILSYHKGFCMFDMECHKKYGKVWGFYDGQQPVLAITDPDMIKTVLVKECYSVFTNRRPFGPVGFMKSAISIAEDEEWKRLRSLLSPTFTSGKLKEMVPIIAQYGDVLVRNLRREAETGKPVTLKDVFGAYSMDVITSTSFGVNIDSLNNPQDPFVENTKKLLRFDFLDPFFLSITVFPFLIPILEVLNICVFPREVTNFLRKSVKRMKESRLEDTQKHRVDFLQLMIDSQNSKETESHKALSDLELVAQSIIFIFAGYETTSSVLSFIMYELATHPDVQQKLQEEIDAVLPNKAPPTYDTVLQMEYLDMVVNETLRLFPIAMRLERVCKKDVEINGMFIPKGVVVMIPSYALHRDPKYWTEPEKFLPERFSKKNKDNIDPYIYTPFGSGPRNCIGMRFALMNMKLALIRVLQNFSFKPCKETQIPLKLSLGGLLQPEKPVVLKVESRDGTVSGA

Oc1cc(Cl)ccc1Cl
AC50 [1]: 31.6 µM (inconclusive)

CN(C)CC1CC/C(=C\c2ccc(Cl)cc2)C1=O (stereo not drawn)
GI50 [2]: 0.31 µM (active)
GI50 [3]: 0.509 µM (active)
GI50 [4]: 2.21 µM (inactive)

Cc1ccc([N+](=O)[O-])cc1NC(=O)CCSc1ccc(Cl)cc1
IC50 [5]: 7.75 µM (active)
IC50 [6]: 6.23 µM (active)

COc1ccc(-c2cc(-c3cccnc3)c(C#N)c(N)n2)cc1
EC50 [7]: 22 µM (active)
EC50 [8]: 23 µM (active)
EC50 [9]: 12.7 µM (active)

CC(C)(/N=N/C(C)(C)C(=N)N)C(=N)N
AC50 [1]: 39.8 µM (inconclusive)

COc1ccc(Oc2c(C)oc3cc(OC(=O)N4CCOCC4)ccc3c2=O)cc1
EC50 [7]: > 120 µM (not active)
EC50 [8]: 59.2 µM (active)
EC50 [9]: > 120 µM (not active)

CC(C)Oc1ccc(C2CC(=O)N(Nc3ccc([N+](=O)[O-])cc3[N+](=O)[O-])C2=O)cc1 (stereo not drawn)
IC50 [5]: 0.846 µM (active)
IC50 [6]: 0.577 µM (active)

O=c1[nH]c(=O)n([C@H]2CCCO2)cc1F
GI50 [2]: 24.3 µM (inactive)
GI50 [3]: 37.7 µM (inactive)
GI50 [4]: 369 µM (inactive)

O=C(/C=C/c1c[nH]c2ccccc12)c1cccc2ccccc12
AC50 [10]: 2.92 µM (active)

COC1=C[C@H]2[C@H]3Cc4ccc(OC)c(O)c4[C@@]2(CCN3C)CC1=O
AC50 [1]: 31.6 µM (inconclusive)

COc1ccc2c(c1)CCc1c(CO)c(COC(=O)NC(C)C)n(C)c1-2
GI50 [2]: 1.17 µM (inactive)
GI50 [3]: 2.2 µM (inactive)
GI50 [4]: 3.32 µM (inactive)

CN(C)C(=O)N(CCCl)N=O
GI50 [2]: > 100 µM (inactive)
GI50 [3]: > 100 µM (inactive)
GI50 [4]: > 100 µM (inactive)

Cn1c(N)c(C(=O)COC(=O)c2cc(C3CC3)nc3ccccc23)c(=O)n(Cc2ccccc2)c1=O
AC50 [1]: 15.8 µM (inconclusive)

CCC(C)N(CC(=O)Nc1cccc(C)c1C)C(=O)CCl (stereo not drawn)
EC50 [11]: 0.608 µM (active)
EC50 [12]: 8.81 µM (active)
EC50 [13]: 3.8 µM (active)
EC50 [14]: 5.48 µM (active)
CC50 [15]: 8.39 µM (active)
AC50 [16]: 57.3 µM (active)
EC50 [17]: 10.8 µM (active)

COc1ccccc1/C=C1\SC(NNC(=O)c2cccc(Br)c2)=NC1=O
AC50 [10]: 2.09 µM (active)

Cc1cc(N2CCCC2=O)cc(C)c1S(=O)(=O)NCCOc1ccc(C(C)(C)C)cc1
AC50 [18]: 2.58 µM (active)
AC50 [19]: 51.4 µM (active)
AC50 [20]: 2.36 µM (active)
AC50 [21]: 1.15 µM (active)

Cc1c2ccccc2c(C)c2c1ccc1ccccc12
AC50 [1]: 12.6 µM (inconclusive)

CCCCCCCCCCCC[S+](C)C
GI50 [2]: 0.236 µM (active)
GI50 [3]: 27.8 µM (inactive)
GI50 [4]: 5.33 µM (inactive)
